Measurements published in BigSolDB 2.1.

COc1ccc2nc(S(=O)Cc3ncc(C)c(OC)c3C)[nH]c2c1 (stereo unspecified)
solubility (mole fraction)
Settings	in THF	in acetone	in acetonitrile	in ethanol	in ethyl acetate	in methanol	in n-butanol	in water
278.15 K	0.00458	0.00146	0.00118	0.00157	0.000981	0.00206	0.00128	4.07e-05
283.15 K	0.00644	0.00173	0.00143	0.00187	0.00112	0.00264	0.00153	5e-05
288.15 K	0.00843	0.00215	0.00182	0.00224	0.00134	0.00348	0.00196	6.15e-05
293.15 K	0.0113	0.00265	0.00222	0.00261	0.00156	0.00435	0.0024	7.64e-05
298.15 K	0.0146	0.00313	0.00273	0.00347	0.00185	0.00569	0.00303	9.36e-05
303.15 K	0.0196	0.00377	0.00354	0.00413	0.0022	0.00686	0.0037	0.000115
308.15 K	0.0259	0.00464	0.00429	0.00509	0.00253	0.00857	0.00455	0.000138
313.15 K	0.0327	0.00541	0.00513	0.00605	0.00293	0.0106	0.0054	0.000165
318.15 K	0.0425	0.00637	0.00607	0.00702	0.00343	0.0129	0.0065	0.000196
323.15 K	0.0545	0.00739	0.00711	0.00832	0.00405	0.0156	0.00779	0.00023
328.15 K	0.0663	0.0085	0.00843	0.00982	0.0047	0.0186	0.00884	0.000263
333.15 K	0.0789	0.00982	0.00978	0.0113	0.00523	0.0216	0.0103	0.000299
